Results as given in a melting point compilation (Tetko et al.; mined from patent text by program, amines drawn as free bases though some values may be those of a salt).

SMILES	melting point
COc1cc2ccc3c4cc5c(cc4ncc3c2cc1OC)OCO5	171 °C
Cc1nc2cc(-c3ccc(C=C4SC(=O)NC4=O)cn3)cc(C3CCCCC3)c2o1	314 to 316 °C
Nc1nc(Oc2ccc(C(F)(F)F)cc2Cl)ccc1[N+](=O)[O-]	80 to 84 °C
CCOC(=O)c1cc2cc(OCCNC[C@H](O)COc3ccccc3)ccc2s1	99 to 100 °C
C=CCNc1nc(NCCC)nc2c(C)csc12	74 to 75 °C
COc1ccc(N2CCN(C(=S)C3(C)CCc4c(C)c(O)c(C)c(C)c4O3)CC2)cc1 (configuration not stated)	120 to 121 °C
c1ccc(-c2cc(-c3ccccc3)c(N3CCN(c4ncccn4)CC3)nn2)cc1	71 to 74 °C
COc1ccc2c(c1)CCN(C(=O)OCc1ccccc1)C21CCC(C(=O)O)(C(=O)O)CC1	193 to 194 °C
Cc1ccc(C#N)c(OCc2ccc(OCc3nc(-c4ccccc4)oc3C)cc2)n1	116 to 117 °C
CCOC(=O)C1=C(C)NC(c2cnc(N)s2)=NC1c1ccc(F)cc1Cl (configuration not stated)	132 to 135 °C
N#Cc1nn(-c2c(Cl)cc(C(F)(F)F)cc2Cl)c(N)c1-c1ccc2c(c1)OCO2	222 °C
CCOC(=O)CC1=COc2ccc(O)cc2O1	160 °C
CCCCCCCCCCCCCCCCCC(O)C[N+](=O)[O-] (configuration not stated)	55 to 56 °C
CCN1c2ncc(CC(O)c3ccncc3)cc2C(=O)N(C)c2ccc(Cl)nc21 (configuration not stated)	153 to 154 °C
CON=C(C#CC(=O)c1ccc(Cl)cc1)C(=O)OC	172 to 173 °C
CC(CCC(N)=O)C1CC=C2C3=C(CCC21C)C1(C)CCC(O)C(C)(C)C1CC3 (configuration not stated)	233 to 235 °C
NS(=O)(=O)c1ccc(NN=Cc2ccc(F)cc2)cc1	205 to 206 °C
CC(=O)NCC1CN(c2ccc(N3CCN(C(=O)COC(=O)c4cccnc4)CC3)c(F)c2)C(=O)O1 (configuration not stated)	173 to 175 °C
CCOC(=O)c1cccc(-c2coc3cc(O)c(O)cc3c2=O)c1	217 to 218 °C
CS(=O)(=O)c1cc(C(=O)NC(=N)N)c(NCc2ccco2)cc1Cl	96 to 102 °C
CSc1ccc(-c2coc3ccc(-c4nnc(O)o4)cc23)cc1	211 to 212 °C
c1ccc(C2=NNC(c3ccccc3)C2)cc1 (configuration not stated)	194 to 199 °C
O=C(O)c1cnn2c(C(F)(F)F)cc(-c3ccc(C(F)(F)F)c(OCC(F)(F)F)c3)nc12	264 °C
CSC(=O)c1c(C(F)F)nc(C(F)(F)F)c(C(=O)SC)c1NC1CC1	85 to 86 °C

SMILES	melting point
COc1ccc(F)c(F)c1C(=O)c1cnc(Cl)nc1Cl	137 to 139 °C
O=S(=O)(c1ccc(F)cc1)N1CCCC1c1ccco1 (racemic)	69 °C
COc1nn(-c2ccc(CBr)c(Cl)c2)nc1Cl	141 to 142 °C
COc1ccc(F)c(O)c1	25 to 26 °C
CCOc1cc(OCc2ccccc2OCc2nc(-c3ccccc3)oc2C)ccc1CCC(=O)O	112 to 113 °C
Cc1ccccc1C(Oc1cc(OCc2ccoc2)ccc1C#N)C(=O)O (racemic)	141 to 143 °C
COc1cccc(Cn2cc3c(-c4cccc(C(=O)NCCO)c4)cccc3n2)c1	176 to 177 °C
Nc1ccc(-c2nc3ccc(Br)cc3s2)cc1	219 to 221 °C
CC(C)Oc1ccccc1C1(CC(=O)O)C(=O)Nc2ccc(Cl)cc21 (configuration not stated)	146 to 148 °C
COc1cccc(N(C)c2nc(N)nc3[nH]c4ccccc4c23)c1	245 to 246 °C
Cc1ncn2c1CN(C)C(=O)c1ccccc1-2	184 to 186 °C
CN(C)c1ccc(C(=O)C(O)c2cccc(F)c2)cc1 (configuration not stated)	147 to 149 °C
CCCC(=O)c1cnc2c(C(=O)O)cccc2c1Nc1ccccc1C	179 to 180 °C
CC(CC(C)C)=Nc1cc2c(cc1F)OCC(=O)N2	113 to 115 °C
CCC(Cc1ccc(OCCN2CCCCC2)cc1)(C(=O)NO)S(=O)(=O)c1ccc(OC)cc1 (configuration not stated)	75 °C
CCOC(=O)Cc1csc(-c2cc3cccc(NS(=O)(=O)c4cccs4)c3[nH]2)n1	161 to 162 °C
Cc1oc(-c2ccc3ccccc3c2)nc1COc1ccc(CO)cc1	181 to 182 °C
CN1CCC(c2c[nH]c3ccc(C(=O)c4ccc(N(C)C)cc4)cc23)CC1	103 to 104 °C
COC=CC=C(C#N)C#N	74 to 76 °C
O=C1NC(=O)N(CCc2ccccc2)C1O (configuration not stated)	168 to 169 °C
COc1ccc(F)cc1C(C)(C)CC(O)(Cn1ncc(=O)c2ccccc21)C(F)(F)F (configuration not stated)	122 to 123 °C
NC(=NO)c1ncn2c1[C@@H]1CCN1C(=O)c1c(Br)cccc1-2	265 to 266 °C
CC(C)N(C(=O)c1cccc2c1CCc1cc(C(F)(F)F)ccc1S2)C(C)C	122 °C

Other lines, results leading:

melting point	SMILES
167 to 169 °C	O=C(NC(=O)c1c(F)cccc1F)Nc1cc(C(F)(F)F)ccn1
228 °C	COC(=O)c1cc(C(=O)c2c(C)c(OC)c3ccccn23)ccc1NC(=O)NCC(=O)N(C)C
68 to 69 °C	CCCCCCCCCCN1CCN(O)C1=O
224 to 225 °C	CCCc1nccn1-c1nc(Cl)nc2nc[nH]c12
163 to 165 °C	COc1ccc2c(c1)CN(C)C(=O)C2c1cc(Cl)cc(Cl)c1 (configuration not stated)
215 to 217 °C	O=[N+]([O-])c1ccc(-c2nnc3ccc(Cl)nn23)s1
47 to 48.5 °C	CCCCCC(=O)NC1(OCC)CC1
219 to 220 °C	Cc1cc(C(N)=O)ncc1C(c1c(F)ccc(F)c1F)S(=O)(=O)c1ccc(OC(F)(F)F)cc1 (configuration not stated)
267 °C	Cc1nc2c(C(F)(F)F)cccc2c(O)c1C(=O)Nc1nccs1
175 °C	COc1cc(-c2nc3ccc(OCCN4CCOCC4)cc3n2Cc2ccccc2C(F)(F)F)cc(OC)c1OC
110 °C	Clc1nc(Cl)c2c(n1)CCCS2
206 to 207 °C	Cc1ccnc(C(=O)c2[nH]c3cc(Cl)ccc3c2NC(=O)[C@H](C)O)c1
76 to 77 °C	O=[N+]([O-])c1cc(CO)ccc1OCc1ccccc1
108 to 110 °C	Cc1c(C(=O)N[C@@H](Cc2ccc(OCc3ccoc3)cc2)C(=O)O)oc2cc(-c3ccc(Cl)cc3)ccc12
133 to 134 °C	CC(=O)NC(C)(C)c1ccc(CN2CCN(c3cccc(F)n3)CC2)cc1
47 to 52 °C	COc1ccc(OC)c(-c2ccc(C(C)=NOCCOc3ccc(CC4SC(=O)NC4=O)cc3)cc2)c1 (configuration not stated)
65 to 66 °C	Cc1cc(C)cc(C(=O)OC2CCCCC2=O)c1 (configuration not stated)
125 °C	O=CNCC1CCN(C(c2ccccc2)c2ccccc2)CC1
200 °C	Nc1cc([N+](=O)[O-])ccc1OCC(O)CN1C(=O)CCC1=O (configuration not stated)
206 to 208 °C	C#CC[C@@H](N)c1nc2cccnc2c(=O)n1Nc1ccccc1
121 to 122 °C	COC(=O)Cc1cscc1C(=O)O
128 to 132 °C	CCCC1C(C(=O)OCC)C(O)(C(F)(F)F)OC(O)(C(F)(F)F)C1C(=O)OCC (configuration not stated)
> 300 °C	CC(C)c1cc(C(=O)Nc2ccc(C(=O)O)cn2)sc1C(C)C
86 to 89 °C	CCCCCCc1c(Br)c(-c2ccccc2)n(-c2ccc(C)cc2)c1-c1ccccc1
66 to 67 °C	CC(C)N(Cc1ccc(Cl)c(Cl)c1)S(=O)(=O)c1ccc(Cl)s1
